Source: article PMC6412051 (Scientific Reports, 2019)

How the values were obtained:
[1] = oral administration; cited from earlier work
[2] = Formation/stability constant by continuous variation (Job's) method; format: physicochemical; settings: equimolar solutions in methanol, room temperature
From the text: In Fig. 1, the extrapolated value at the point of cross section on the Job’s curve corresponds to the total absorbance of the complex, if the complex formation had been completed. Since the complex is dissociative in nature, the actual absorbance is somewhat lower than the absorbance […].
The colour of the solution changed from brown to orange. Wavelength of maximum absorbance was noted against a blank, which appeared at 296 nm. All the measurements were made at 296 nm.

Molecule	bioavailability [1]	formation constant of the complex (log K) [2]
CCN1CCCC1CNC(=O)c1cc(S(N)(=O)=O)ccc1OC (centres unmarked) [SPR, Sulpiride]	approximately 30%	
[Ru(p-cymene)Cl(SPR)]		5.45
